Laboratory results: patent publication US10106817B2, “Compositions and methods of use thereof for identifying anti-viral agents” (priority 2013, dated 2018)
Entries after “also recorded” stand apart in the source; their conditions may differ.

Columns and labels:
Format in all cases: cell-based
[1] = test system: MIEP-GFP control cells (MIEP-mCherry-IRES-GFP circuit, ARPE-19); experiment: Flow cytometry of GFP in non-feedback MIEP-GFP control cells; conditions: for GFP median fluorescence intensity: 10 ng/ml TNF-α, 400 nM TSA, or 1 mM VPA
Source text: (§1) Mathematica™ (Wolfram Research) was used for closed-loop analysis. Standard lentiviral cloning was used to create minimal MIE circuits (Dull et al., 1998). The minimal MIEP-IE2-GFP and MIEP-GFP circuits are driven by a full-length ˜2.5 kb MIE promoter-enhancer (MIEP) that spans the sequence from the MIEP modulator at the 5′ edge to the junction of IE exons 1 and 2. The MIEP was PCR-cloned from AD169 into pLEIGW (a gift from Thor Lemishka) in place of the EF1a promoter. This full-length MIEP drives an IE2-IRES-GFP or mCherry-IRES-GFP cassette. IE2 was cloned from pRSV-IE86 (a gift from Jay Nelson). ARPE-19 cells were infected and FACS sorted for GFP to create stably expressing cell lines. Cells were treated with TSA for 17 hours, and GFP expression was quantified by flow cytometry. Live cells were gated by forward-versus-side scattering on a FacsCalibur™ cytometer (BD Biosciences) and mean fluorescence intensity recorded. At least 20,000 live cells were recorded for each experiment and data was analyzed in FlowJo™ (Treestar Inc.).
Cell lines (ARPE-19 cells) expressing IE2-GFP from MIE promoter (MIEP) (referred to as “MIEP-IE2-GFP cells”) were tested, in comparison to a cell line expressing MIEP-GFP control (referred to as “MIEP-GFP control cells). MIEP-IE2-GFP cells and MIEP-GFP control cells were treated with 10 ng/ml TNF-α, 400 nM TSA, or 1 mM VPA in MIEP-IE2-GFP cells. The data are depicted in FIG. 33.

IE2 = experiment: Quantitative Western blot of IE2 expression during CMV infection; conditions: pre-treatment with activator vs untreated control
Method: (§2) MRC5 fibroblasts and life-extended human foreskin fibroblasts (HFFs) (Bresnahan and Shenk, 2000) were maintained in Dulbecco's Modified Eagle's Medium (DMEM) supplemented with 10% fetal bovine serum (FBS) and 50 U/ml penicillin-streptomycin at 37° C. and 5% CO2 in a humidified incubator. ARPE-19 cells were maintained in a 1:1 mixture of DMEM/F-12 (Mediatech Inc.) with 10% FBS (HyClone) and 50 U/ml Penicillin-Streptomycin (Mediatech Inc.). Cells were pretreated in a final concentration of 1 mM VPA (Calbiochem).
MRC5s at ˜60% confluency were infected at MOI=1. To synchronize viral entry, adsorption was done at 4° C. for 30 min., cells washed once in PBS (Mediatech, Inc.), fresh media added, and cells placed at a 37° C. in a humidified CO2 incubator. Time points were collected every 1-2 hrs for 20-24 hrs as indicated. Sample collection, protein transfer, and blot preparation were as previously described (Bolovan-Fritts et al., 2004) and samples were loaded and separated on precast SDS PAGE 10% or 7.5% bisacrylamide gels (BioRad).
For quantitative IE2 detection, the 1° antibody MAB810 (Millipore) was used at 1:100 and 2° antibody 926-32212 (LI-COR™) was used at a dilution of 1:20,000. For normalization, anti-beta tubulin antibody 26-42211 (LI-COR™) used at a dilution of 1:2000 followed by 2′ antibody 926-68073 (LI-COR™) at a dilution of 1:20,000. Blots were scanned and quantified on a LI-COR™ Odyssey™ according to manufacturer's protocols.

IE2-YFP = experiment: Single-cell time-lapse fluorescence microscopy of IE2-YFP levels, CMV IE2-YFP virus; conditions: pretreatment with activator vs untreated control
Method: as §2
Life-extended HFFs and PML knockdown HFFs (a gift from Roger Everett) were passed onto a 96-well glass-bottom plate (Thermo Fisher Scientific) and grown to confluency to hold cells in the G0. Cells were synchronously infected on ice for 30 mins at MOI=1 (infection with mutant was done at room temperature). Live cells were imaged using a 20× oil objective on a spinning-disk confocal microscope (Olympus DSU™) equipped with a 37° C., humidified, 5% CO2 live-cell chamber. Image collection began when YFP signal was first detected and frames were captured every 10 minutes for 16-24 hours using an exposure time between 200 and 800 msec. Single-cell tracking and segmentation were performed with custom-written code in MatLab™ (Mathworks) as previously described (Weinberger et al., 2008). Homo-FRET imaging was performed as previously described (Weinberger and Shenk, 2007).

[2] = test system: cells expressing the mutant amplifier circuit MIEPΔcrs-IE2-IRES-GFP; conditions: after 14 days of TSA treatment
Method: (§3) MIEPΔcrs-IE2-GFP was constructed by PCR cloning MIEPΔcrs from the CMV Δcrs IE2-YFP bacmid and inserted into MIEP-IE2-GFP. ARPE-19 cells were transduced with the MIEP-IE2-GFP and MIEPΔcrs-IE2-GFP vectors and FACS sorted for GFP. The transduced cell lines were allowed to recover for 24 hours before the percentage of GFP-expressing cells for each cell line was quantified. Live cells were gated by forward versus side scattering on a FacsCalibur cytometer. On the first day after recovery, 2,500 GFP events were recorded. Subsequently, at least 10,000 GFP events were recorded for each experiment and analyzed using FlowJo™. For genomic PCR, genomic DNA was purified using a NucleoSpin Tissue kit (Clontech).

CMV IE2-YFP virus = experiment: Viral replication kinetics (titer), CMV IE2-YFP virus; conditions: for replication fitness of the parent virus (toxicity of exposure alone): VPA or TSA exposure
Method: as §2
(§4) Confluent MRC5 monolayers at ˜5×10^4 cells per well were infected at indicated MOIs using 0.45 μm pre-filtered virus inoculum stocks diluted in culture media. Inoculums were calculated based on plaque-assay titrations (Bolovan-Fritts and Wiedeman, 2001), shown as time point 0 in each figure. Inoculum was then removed and replaced with 1 mL fresh media. Infected wells were collected in triplicate at indicated time points and stored at −80° C. To measure replication, samples were thawed and prepared as a 10-fold serial-dilution series in culture media, analyzed by TCID50, then converted to PFU/ml. Error ranges were calculated by standard deviation.

[3] = test system: MIEP-IE2-GFP cells (MIEP-IE2-IRES-GFP circuit, ARPE-19); experiment: Flow cytometry of GFP in negative-feedback MIEP-IE2-GFP cells; conditions: different levels of activation by TSA treatment, 17 hours
Source text: as §1
Cell lines (ARPE-19 cells) expressing IE2-GFP from MIE promoter (MIEP) (referred to as “MIEP-IE2-GFP cells”) were tested, in comparison to a cell line expressing MIEP-GFP control (referred to as “MIEP-GFP control cells). MIEP-IE2-GFP cells and MIEP-GFP control cells were treated with 10 ng/ml TNF-α, 400 nM TSA, or 1 mM VPA in MIEP-IE2-GFP cells. […]

[4] = test system: cells expressing the wild-type accelerator circuit MIEP-IE2-IRES-GFP; experiment: Percentage of live cells by flow cytometry, wild-type accelerator circuit cells; conditions: after 14 days of TSA treatment
Method: as §3

[5] = test system: low-passage clinical CMV isolate TB40-E; experiment: Viral replication (titer), clinical isolate TB40-E
Method: as §4

CMV Δcrs mutant virus = experiment: Replicative fitness of the CMV Δcrs mutant virus (PFU/ml); conditions: 72-hour VPA treatment, PFU/ml on day 10 after infection at MOI=1
Method: The CMV GFP control virus (Yu et al., 2003) encodes an SV40 promoter-EGFP cassette. The CMV […] IE2-YFP virus was constructed from the CMV IE2-YFP background as described (Cuevas-Bennett and Shenk, 2008). Viral stocks were titered by TCID50 (Nevels et al., 2004). To verify the integrity of the CMV Δcrs IE2-YFP virus, a rescue virus, CMV ΔcrsREVERT IE2-YFP, was constructed by homologous recombination, whereby CMV Δcrs IE2-YFP BAC DNA (20 μg) and a ˜2.5 kb wild-type MIEP DNA fragment (2.5 μg) were co-transfected by electroporation into 10^6 MRC5 cells, and subjected to two rounds of plaque purification.
as §4

Row | Molecule | GFP median fluorescence intensity [1] | GFP steady-state level as a function of activation (closed-loop dose-response) ([1]; different levels of activation by TSA treatment, 17 hours) | IE2 protein levels (amplification) (IE2) | rate of IE2 expression (acceleration) (IE2) | rate of IE2 expression in single cells (time to steady-state) (IE2-YFP) | steady-state IE2 levels in single cells (IE2-YFP) | viability (percentage of live cells) [2] | replication fitness of the parent virus (toxicity of exposure alone) (CMV IE2-YFP virus) | GFP steady-state level as a function of activation (closed-loop dose-response) [3] | viability (percentage of live cells) [4] | increase in titer [5] | replication of the mutant amplifier virus (CMV Δcrs mutant virus) | increase in viral replication compared to the untreated control (CMV IE2-YFP virus; 72-hour VPA pre-treatment, after the first round of viral maturation (~96 hours), MOI=1)
1 | CC(/C=C/C(=O)NO)=C\[C@@H](C)C(=O)c1ccc(N(C)C)cc1 [TSA, Trichostatin A] | significantly increased | linear increase in final level | do not amplify IE2 protein levels | accelerate IE2 expression | significantly accelerates IE2 expression in single cells | does not amplify steady-state IE2 levels | significantly decreased viability | neither activator reduces replication fitness | saturation in steady-state level | little effect on viability |  |  | 
2 | Tumor Necrosis Factor Alpha [TNF-α] | significantly increased |  | do not amplify IE2 protein levels | accelerate IE2 expression | significantly accelerates IE2 expression in single cells | does not amplify steady-state IE2 levels |  |  |  |  |  |  | 
3 | CCCC(CCC)C(=O)O [VPA, Valproic Acid] | significantly increased |  | do not amplify IE2 protein levels; also recorded: no amplification in IE2 levels | accelerate IE2 expression; also recorded: acceleration | significantly accelerates IE2 expression in single cells; also recorded: decreases time to steady-state | does not amplify steady-state IE2 levels; also recorded: without increasing steady-state IE2-YFP levels |  | neither activator reduces replication fitness |  |  | nine | Decreased replication | approximately five
